This note sets out measurements from US5464834A, “N-substituted N'-heterobicyclic piperazines having pharmaceutical activity” (Adir et Compagnie, priority 1992, dated 1995).

Where two headings read alike, the source gives them in different places.

For test [1], the target named is T1, 5HT1A receptors (Rattus norvegicus, UniProt P19327).
T1 sequence (P19327 1-422): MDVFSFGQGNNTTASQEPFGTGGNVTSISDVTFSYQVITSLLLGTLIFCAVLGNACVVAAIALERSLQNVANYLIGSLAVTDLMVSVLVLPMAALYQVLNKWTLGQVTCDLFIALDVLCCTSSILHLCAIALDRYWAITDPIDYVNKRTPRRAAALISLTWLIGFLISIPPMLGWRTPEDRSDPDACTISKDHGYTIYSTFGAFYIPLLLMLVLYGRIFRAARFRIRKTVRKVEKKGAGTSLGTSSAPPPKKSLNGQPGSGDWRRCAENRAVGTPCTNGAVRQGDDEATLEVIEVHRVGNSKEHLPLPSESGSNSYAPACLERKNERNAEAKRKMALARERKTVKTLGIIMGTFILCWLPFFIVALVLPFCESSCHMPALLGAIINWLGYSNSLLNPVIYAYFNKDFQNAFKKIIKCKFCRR
Description: Flat body posture (FBP), agonist (alone) and antagonist (vs 8-OH-DPAT). Format: in vivo, rat (male Wistar). More on the design: from tissue; host or cells: whole living male Wistar rats (endogenous receptor). The settings on record: for ED50: rat, sc. As for the experimental part:
(§1) The tests were carried out using male Wistar rats weighing 200 to 220 g having free access to their food and to their drinking water in standard cages.
(§2) The animals are isolated individually for the tests for hypothermia, corticosterone secretion and flat body posture, or combined in groups of three for the tailflick test.
(§3) The compounds to be studied were administered by the subcutaneous route (s.c.) 60 minutes before the beginning of the test, that is to say 30 minutes before the solvent (agonist responses) or the 8-OH-DPAT (antagonist responses).
(§4) In all of the tests the solvent is used in parallel as a control. The animals were left to rest in their cage during the period between the injections and the evaluation. For the agonist studies, the solvent was administered at 1 ml/kg s.c. 30 minutes before the beginning of the test. For the antagonist studies, doses of 8-OH-DPAT that induce sub-maximal responses were chosen, that is doses of 0.63, 0.16, 0.16 and 0.16 mg/kg s.c. for, respectively, the tail flick test, flat body posture test, corticosterone secretion test and hypothermia test.
(§5) The same animals were used to evaluate the influence of the compounds studied on FBP and on the determination of the plasma concentration of CS. All of the tests were carried out in the morning between 10.30 and 12.300 that is to say when the circadian levels of CS are lowest.
25 minutes after the treatment (that is to say 5 minutes before decapitation) the animals are observed in their cages and the presence or absence of FBP is noted.
(§6) The presence of FBP is defined by a characteristic posture of the animal. That posture is in the ventral decubitus position with the posterior limbs clearly extended. 5 minutes after the observation of FBP, the animals are decapitated and the blood from the trunk is collected in cooled tubes containing 50 μl of a 10% EDTA solution. After centrifugation at 4000 revs/min, the plasma is removed and stored at -30° C. until determination.
(§7) In general, after variance analysis, the results are subjected to the Dunett test. The results are taken as significant if p <0.05.
For the dose-response for the induction and inhibition of FBP, the ED50 values (doses at which 50% of the animals show a response) were calculated by the Litchfield and Wilcoxon method.
(§8) The doses of the compounds tested are all expressed in base terms. Unless specified otherwise, all of the compounds were dissolved in sterile water (to which if necessary a few drops of lactic acid were added) and administered at a volume of 1 ml/kg s.c.

The target in test [2] is T1, 5HT1A receptors. Description: Corticosterone secretion (CS), agonist (alone) and antagonist (vs 8-OH-DPAT). Format: in vivo, rat (male Wistar). More on the design: from tissue; host or cells: whole living male Wistar rats (endogenous receptor). The settings on record: for CS secretion MED alone: agonist test, compound alone s.c., minimum effective dose vs control; for ED50: rat, sc, antagonist test, s.c., read-out: CS secretion ID50 (95% CL) + DPAT. As for the experimental part:
as §1, §2, §3, §4, §5, §6
The CS was determined by a radio-competitive determination for a plasma protein that binds the CS: transcortine. The latter is obtained from a monkey serum. The separation of the CS-transcortine complexes from the free CS was carried out by means of a solution of dextran and active carbon. The detection limit was 50 pg/tube. The intra- and inter-experiment variations in determination were 5 and 15% respectively [cf Rivet J. M. et al, Eur. J. Pharmacol., 183,634-635 (1990)].
The CS base rates in the plasma never being zero, the following formula was used to calculated the percentage inhibition of plasma CS induced by 8-OH-DPAT: [formula]
as §7, §8

Test [3] concerns the target T1, 5HT1A receptors. Description: Body temperature / hypothermia, agonist (alone) and antagonist (vs 8-OH-DPAT). More on the design: from tissue; host or cells: whole living male Wistar rats (endogenous receptor). Type of test: in vivo, rat (male Wistar). Particulars: for HYPOTHERMIA MED alone: agonist test, compound alone s.c., minimum effective dose vs control; for ED50: rat, sc, antagonist test, s.c., vs 8-OH-DPAT 0.16 mg/kg s.c., read-out: HYPOTHERMIA ID50 (95% CL) + DPAT. The method, then: as §1, §2, §3, §4
The rats are immobilised and a lubricated digital thermometer (Termistroprobe of Testotherm, Basle, Switzerland) is inserted into the rectum to a depth of 5 cm. 30 seconds after insertion, the temperature is read on a digital scale. The percentage inhibition is calculated using the formula given above.
as §7, §8

Test [4] deals with T1, 5HT1A receptors. As to the kind of experiment: In vitro binding test, 5HT1A receptors ([3H]-8-OH-DPAT, hippocampus membranes). More on the design: The hippocampus of the brains of decapitated rats was immediately frozen; from tissue; host or cells: hippocampus membranes of male Wistar rats; species or system rat (male Wistar). The method, then:
as §1
The hippocampus of the brains of decapitated rats was immediately frozen on solid carbon dioxide and then kept at -80° C. until preparation of the membranes. The tissue was homogenised at 4° C. in the appropriate buffer using a Polytron (Brinkman Instruments, Lucerne, Switzerland) and centrifuged at 20,000 revs/min.
Incubation was carried out for 30 minutes at 25° C. Non-specific binding was established by […] of 5HT. The tests were terminated by rapid filtration using a Brandel harvester through glass fibre filters pretreated with 0.1% polyethylene imine.
The IC50 values were determined in accordance with process 8 of Tallarida R. J. and Murray R. B., Manual of Pharmacological calculations with computer programs, Springer Verlag, New York, (1987).
The pKi was calculated in accordance with the following formula: [formula] wherein [L] is the concentration of the hot ligand (^[3] H-8-OH-DPAT, 0.4 nM) and Kd is the apparent dissociation constant determined from the saturation experiments.
The substances studied were dissolved in the incubation buffer.
Binding of 5HT1A receptors

In test [5] the target is T1, 5HT1A receptors. As to the kind of experiment: Spontaneous tail flick (STF) test, agonist (alone) and antagonist (vs 8-OH-DPAT). The settings on record: rat, sc; antagonist test; s.c.; vs 8-OH-DPAT 0.63 mg/kg s.c.; read-out: STFs ID50 (95% CL) + DPAT. Type of test: in vivo, rat (male Wistar). More on the design: from tissue; host or cells: whole living male Wistar rats (endogenous receptor). The method, then: as §1, §2, §3, §4
The tail flicks were determined on the animals in horizontal opaque plastics cylinders with the tail of the animals hanging freely on the edge of the laboratory work bench. After allowing 5 minutes for adaptation, the number of movements made in 5 minutes was recorded. An STF is defined as being an elevation of the tail to a level higher than that of the axis of the body [Millan M. J. et al., J. Pharmacol. Exp. Ther., 256, 973-982 (1990)].
as §7, §8

[6] abbreviates: agonist test, compound alone s.c., read-out: FBP ED50 (95% CL) alone.
Where [7] appears, read: antagonist test, s.c., vs 8-OH-DPAT 0.16 mg/kg s.c., read-out: FBP ID50 (95% CL) + DPAT.
Setting [8] is: rat hippocampus, [3H]-8-OH-DPAT 0.4 nM, 30 min at 25° C, read-out: AFFINITY (pKi) (converted).

Regarding `c1cc2c(c(N3CCN(CCc4cccc5ccccc45)CC3)c1)OCCO2` [Example 5, 4-(Benzodioxan-5-yl)-1-[2-(naphth-1-yl)ethyl]piperazine], the ED50 at 5HT1A receptors [1] (setting [6]) was more than 2.5 mg/kg; at 5HT1A receptors [1] (setting [7]) it was less than 2.5 mg/kg; on 5HT1A receptors [2] (vs 8-OH-DPAT 0.16 mg/kg s.c.), 2.5 mg/kg; on 5HT1A receptors [3] it was 0.32 mg/kg. Also, the “CS secretion MED alone” value on 5HT1A receptors [2] is listed as more than 2.5 mg/kg. For the same molecule, on 5HT1A receptors [3], the “HYPOTHERMIA MED alone” value is more than 10.0 mg/kg. Further, the Ki at 5HT1A receptors [4] (setting [8]) was 1.29 nM.

In the case of `c1ccc(CCCN2CCN(c3cccc4c3OCCO4)CC2)cc1` [Example 12, 4-(Benzodioxan-5-yl)-1-(3-phenylpropyl)piperazine], the ED50 on 5HT1A receptors [1] (setting [6]) was more than 2.5 mg/kg; at 5HT1A receptors [1] (setting [7]) it was less than 2.5 mg/kg; on 5HT1A receptors [2] (vs 8-OH-DPAT 0.16 mg/kg s.c.), 2.5 mg/kg; on 5HT1A receptors [3], 0.63 mg/kg. Further, the “CS secretion MED alone” value at 5HT1A receptors [2] is more than 2.5 mg/kg. Further, the “HYPOTHERMIA MED alone” value on 5HT1A receptors [3] is more than 2.5 mg/kg. For the same molecule, the Ki on 5HT1A receptors [4] (setting [8]) is 1.7 nM.

With `c1cc2c(c(N3CCN(CCCCc4ccsc4)CC3)c1)OCCO2` [Example 4, 4-(Benzodioxan-5-yl)-1-[4-(thiophen-3-yl)butyl]piperazine], the Ki on 5HT1A receptors [4] (setting [8]) was 0.38 nM.

For the molecule `c1cc2c(c(N3CCN(CC4Cc5ccsc5C4)CC3)c1)OCCO2` (racemic) [Example 3], the ED50 is less than 0.16 mg/kg on 5HT1A receptors [5]; less than 10 mg/kg at 5HT1A receptors [1] (setting [6]); 1.6 mg/kg at 5HT1A receptors [1] (setting [7]); 1.56 mg/kg on 5HT1A receptors [2] (vs 8-OH-DPAT 0.16 mg/kg s.c.); 0.5 mg/kg at 5HT1A receptors [3]. In addition, the “% MPA (% maximum possible antagonism), FBP” value on 5HT1A receptors [1] (vs 8-OH-DPAT 0.16 mg/kg s.c.) is 100%. Moreover, the “CS secretion MED alone” value on 5HT1A receptors [2] was more than 10.0 mg/kg. Besides, the “% MPA (% maximum possible antagonism), CS secretion” value at 5HT1A receptors [2] (vs 8-OH-DPAT 0.16 mg/kg s.c.) worked out at 100%. The “HYPOTHERMIA MED alone” value at 5HT1A receptors [3] is more than 2.5 mg/kg. Moreover, the Ki at 5HT1A receptors [4] (setting [8]) was 1.7 nM.

Take `c1cc2c(c(N3CCN(CCc4ccsc4)CC3)c1)OCCO2` [Example 11, 4-(Benzodioxan-5-yl)-1-[2-(thiophen-3-yl)ethyl]piperazine]: the ED50 at 5HT1A receptors [1] (setting [6]) is more than 2.5 mg/kg; at 5HT1A receptors [1] (setting [7]), less than 2.5 mg/kg; at 5HT1A receptors [2] (vs 8-OH-DPAT 0.16 mg/kg s.c.), 2.5 mg/kg; on 5HT1A receptors [3], 0.16 mg/kg. Further, the “CS secretion MED alone” value on 5HT1A receptors [2] was more than 2.5 mg/kg. Further, the “HYPOTHERMIA MED alone” value on 5HT1A receptors [3] is more than 2.5 mg/kg. This molecule showed a Ki on 5HT1A receptors [4] of 1.2 nM.

In turn, `c1csc(CCN2CCN(c3cccc4c3OCCO4)CC2)c1` [Example 13, 4-(Benzodioxan-5-yl)-1-[2-(thiophen-2-yl)ethyl]piperazine] showed a Ki at 5HT1A receptors [4] of 1.1 nM.

Turning to `c1cc2c(c(N3CCN(CCc4ccc5ccccc5c4)CC3)c1)OCCO2` [Example 6, 4-(Benzodioxan-5-yl)-1-[2-(naphth-2-yl)ethyl]piperazine], the Ki on 5HT1A receptors [4] (setting [8]) is 1.02 nM.

Take `c1cc2c(c(N3CCN(CCc4csc5ccccc45)CC3)c1)OCCO2` [Example 7, 4-(Benzodioxan-5-yl)-1-[2-(benzo[b]thiophen-3-yl)ethyl]piperazine]: the Ki on 5HT1A receptors [4] is 0.724 nM.

`c1cc2c(c(N3CCN(CCc4cc5ccsc5s4)CC3)c1)OCCO2` [Example 8, 4-(Benzodioxan-5-yl)-1-[2-(thieno[2,3-b]thiophen-2-yl)ethyl]piperazine] gave a Ki at 5HT1A receptors [4] of 0.589 nM.
